What was measured:
soybean [1] = assay: Test C postemergence; assay type: in vivo, Glycine max; settings: 10 days, 0 to 100 scale (0 no effect, 100 complete control)
Method in brief: (§1)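 Seeds sown in loam soil–sand blend received a directed preemergence soil spray of test chemical in non-phytotoxic solvent with surfactant; postemergence plants (2–10 cm, one- to two-leaf stage) were sprayed with the same formulation. Greenhouse-held 10 days, then visually rated for injury versus untreated controls, 0 (no effect) to 100 (complete control).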

barnyardgrass [2] = assay: Test C postemergence; assay type: in vivo, Echinochloa crusgalli; settings: 10 days, 0 to 100 scale (0 no effect, 100 complete control)
Method in brief: as §1

corn = assay: Test C postemergence; assay type: in vivo, Zea mays; settings: 10 days, 0 to 100 scale (0 no effect, 100 complete control)
Method in brief: as §1

blackgrass [3] = assay: Test C postemergence; assay type: in vivo, Alopecurus myosuroides; settings: 10 days, 0 to 100 scale (0 no effect, 100 complete control)
Method in brief: as §1

kochia [4] = assay: Test C postemergence; assay type: in vivo, Bassia scoparia; settings: 10 days, 0 to 100 scale (0 no effect, 100 complete control)
Method in brief: as §1

foxtail, giant [5] = assay: Test C preemergence; assay type: in vivo, Setaria faberi
Text: (§2) Seeds of plant species selected from barnyardgrass (Echinochloa crusgalli), blackgrass (Alopecurus myosuroides), corn (Zea mays), foxtail, giant (giant foxtail, Setaria faberi), green foxtail (Setaria viridis), goosegrass (Eleusine indica), kochia (Bassia scoparia), oat, wild (wild oat, Avena fatua), pigweed, palmer (palmer amaranth, palmer pigweed, Amaranthus palmeri), Pigweed, Redroot (redroot pigweed, Amaranthus retroflexus), ragweed (common ragweed, Ambrosia artemisiifolia), ryegrass, Italian ([…] ryegrass, Lolium multiflorum), soybean (Glycine max), and wheat (Triticum aestivum) were planted into a blend of loam soil and sand and treated preemergence with a directed soil spray using test chemicals formulated in a non-phytotoxic solvent mixture which included a surfactant. At the same time, plants selected from these crops and weed species and also galium (catchweed bedstraw, Galium aparine) and horseweed (Erigeron canadensis) were planted in pots containing the same blend of loam soil and sand and treated with postemergence applications of test chemicals formulated in the same manner. Plants ranged in height from 2 to 10 cm and were in the one- to two-leaf stage for the postemergence treatment. Treated plants and untreated controls were maintained in a greenhouse for 10 days, after which time all treated plants were compared to untreated controls and visually evaluated for injury. Plant response ratings, summarized in Table C, are based on a 0 to 100 scale where 0 is no effect and 100 is complete control. A dash (-) response means no test result.

oat, wild [6] = assay: Test C preemergence; assay type: in vivo, Avena fatua
Method in brief: as §1

soybean [7] = assay: Test C preemergence; assay type: in vivo, Glycine max
Method in brief: as §1

foxtail, giant [8] = assay: Test C postemergence; assay type: in vivo, Setaria faberi; settings: 10 days, 0 to 100 scale (0 no effect, 100 complete control)
Text: as §2

horseweed = assay: Test C postemergence; assay type: in vivo, Erigeron canadensis; settings: 10 days, 0 to 100 scale (0 no effect, 100 complete control)
Method in brief: as §1

barnyardgrass [9] = assay: Test C preemergence; assay type: in vivo, Echinochloa crusgalli
Method in brief: as §1

galium = assay: Test C postemergence; assay type: in vivo, Galium aparine; settings: 10 days, 0 to 100 scale (0 no effect, 100 complete control)
Method in brief: as §1

wheat [10] = assay: Test C postemergence; assay type: in vivo, Triticum aestivum; settings: 10 days, 0 to 100 scale (0 no effect, 100 complete control)
Method in brief: as §1

oat, wild [11] = assay: Test C postemergence; assay type: in vivo, Avena fatua; settings: 10 days, 0 to 100 scale (0 no effect, 100 complete control)
Method in brief: as §1

pigweed, palmer [12] = assay: Test C preemergence; assay type: in vivo, Amaranthus palmeri
Method in brief: as §1

pigweed, palmer [13] = assay: Test C postemergence; assay type: in vivo, Amaranthus palmeri; settings: 10 days, 0 to 100 scale (0 no effect, 100 complete control)
Method in brief: as §1

ducksalad = assay: Test D flooded paddy test; assay type: in vivo, Heteranthera limosa; settings: 250 g ai/ha, applied to paddy water, visual rating after 13 to 14 days, scale 0 to 100 (0 no effect, 100 complete control)
Method in brief: (§3)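 Compounds go straight into paddy water over 2-leaf plants in pots flooded to 3 cm. Greenhouse holding lasts 13 to 14 days. Injury is scored by eye against controls from 0 (none) to 100 (complete control).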

kochia [14] = assay: Test C preemergence; assay type: in vivo, Bassia scoparia
Method in brief: as §1

barnyardgrass [15] = assay: Test D flooded paddy test; assay type: in vivo, Echinochloa crus-galli; settings: 250 g ai/ha, applied to paddy water, visual rating after 13 to 14 days, scale 0 to 100 (0 no effect, 100 complete control)
Method in brief: as §3

rice = assay: Test D flooded paddy test; assay type: in vivo, Oryza sativa; settings: 250 g ai/ha, applied to paddy water, visual rating after 13 to 14 days, scale 0 to 100 (0 no effect, 100 complete control)
Method in brief: as §3

ragweed [16] = assay: Test C preemergence; assay type: in vivo, Ambrosia artemisiifolia
Method in brief: as §1

ryegrass, Italian [17] = assay: Test C preemergence; assay type: in vivo, Lolium multiflorum
Method in brief: as §1

ragweed [18] = assay: Test C postemergence; assay type: in vivo, Ambrosia artemisiifolia; settings: 10 days, 0 to 100 scale (0 no effect, 100 complete control)
Method in brief: as §1

wheat [19] = assay: Test C preemergence; assay type: in vivo, Triticum aestivum
Method in brief: as §1

ryegrass, Italian [20] = assay: Test C postemergence; assay type: in vivo, Lolium multiflorum; settings: 10 days, 0 to 100 scale (0 no effect, 100 complete control)
Method in brief: as §1

sedge, umbrella = assay: Test D flooded paddy test; assay type: in vivo, Cyperus difformis; settings: 250 g ai/ha, applied to paddy water, visual rating after 13 to 14 days, scale 0 to 100 (0 no effect, 100 complete control)
Method in brief: as §3

blackgrass [21] = assay: Test C preemergence; assay type: in vivo, Alopecurus myosuroides
Method in brief: as §1

[22] = 500 g ai/ha, preemergence, 0 to 100 scale (0 no effect, 100 complete control)
[23] = Preemergence, 125 g ai/ha, 0 to 100 scale, 0 no effect, 100 complete control

Structure (SMILES): COc1ccc(-n2cnc(C3CCC3)n2)cc1C(=O)N1C[C@H](C)Oc2c(Cl)cccc21 [Compound 323]
- Plant response rating, Soybean (soybean [1]; 500 g ai/ha, postemergence): 100
- Plant response rating, Soybean (soybean [1]; Postemergence, 125 g ai/ha): 100
- Plant response rating, Barnyardgrass (barnyardgrass [2]; 500 g ai/ha, postemergence): 60
- Plant response rating, Barnyardgrass (barnyardgrass [2]; Postemergence, 125 g ai/ha): 30
- Plant response rating, Corn (corn; 500 g ai/ha, postemergence): 50
- Plant response rating, Corn (corn; Postemergence, 125 g ai/ha): 10
- Plant response rating, Blackgrass (blackgrass [3]; 500 g ai/ha, postemergence): 90
- Plant response rating, Blackgrass (blackgrass [3]; Postemergence, 125 g ai/ha): 50
- Plant response rating, Kochia (kochia [4]; 500 g ai/ha, postemergence): 90
- Plant response rating, Kochia (kochia [4]; Postemergence, 125 g ai/ha): 90
- Foxtail, Giant plant response rating (foxtail, giant [5]; [22]): 100
- Plant response rating, Foxtail, Giant (foxtail, giant [5]; [23]): 90
- Oat, Wild plant response rating (oat, wild [6]; [22]): 70
- Plant response rating, Oat, Wild (oat, wild [6]; [23]): 20
- Soybean plant response rating (soybean [7]; [22]): 80
- Plant response rating, Soybean (soybean [7]; [23]): 50
- Plant response rating, Foxtail, Giant (foxtail, giant [8]; 500 g ai/ha, postemergence): 90
- Plant response rating, Foxtail, Giant (foxtail, giant [8]; Postemergence, 125 g ai/ha): 20
- Plant response rating, Horseweed (horseweed; 500 g ai/ha, postemergence): 40
- Plant response rating, Horseweed (horseweed; Postemergence, 125 g ai/ha): 30
- Barnyardgrass plant response rating (barnyardgrass [9]; [22]): 100
- Plant response rating, Barnyardgrass (barnyardgrass [9]; [23]): 70
- Plant response rating, Galium (galium; 500 g ai/ha, postemergence): 100
- Plant response rating, Galium (galium; Postemergence, 125 g ai/ha): 100
- Plant response rating, Wheat (wheat [10]; 500 g ai/ha, postemergence): 20
- Plant response rating, Wheat (wheat [10]; Postemergence, 125 g ai/ha): 20
- Plant response rating, Oat, Wild (oat, wild [11]; 500 g ai/ha, postemergence): 20
- Plant response rating, Oat, Wild (oat, wild [11]; Postemergence, 125 g ai/ha): 20
- Pigweed, Palmer plant response rating (pigweed, palmer [12]; [22]): 100
- Plant response rating, Pigweed, Palmer (pigweed, palmer [12]; [23]): 100
- Plant response rating, Pigweed, Palmer (pigweed, palmer [13]; 500 g ai/ha, postemergence): 100
- Plant response rating, Pigweed, Palmer (pigweed, palmer [13]; Postemergence, 125 g ai/ha): 80
- Plant response rating, Ducksalad (Flood) (ducksalad): 30
- Kochia plant response rating (kochia [14]; [22]): 100
- Plant response rating, Kochia (kochia [14]; [23]): 90
- Plant response rating, Barnyardgrass (Flood) (barnyardgrass [15]): 30
- Plant response rating, Rice (Flood) (rice): 0
- Ragweed plant response rating (ragweed [16]; [22]): 100
- Plant response rating, Ragweed (ragweed [16]; [23]): 30
- Ryegrass, Italian plant response rating (ryegrass, Italian [17]; [22]): 80
- Plant response rating, Ryegrass, Italian (ryegrass, Italian [17]; [23]): 70
- Plant response rating, Ragweed (ragweed [18]; 500 g ai/ha, postemergence): 70
- Plant response rating, Ragweed (ragweed [18]; Postemergence, 125 g ai/ha): 60
- Wheat plant response rating (wheat [19]; [22]): 80
- Plant response rating, Wheat (wheat [19]; [23]): 60
- Plant response rating, Ryegrass, Italian (ryegrass, Italian [20]; 500 g ai/ha, postemergence): 60
- Plant response rating, Ryegrass, Italian (ryegrass, Italian [20]; Postemergence, 125 g ai/ha): 10
- Plant response rating, Sedge, Umbrella (Flood) (sedge, umbrella): 70
- Blackgrass plant response rating (blackgrass [21]; [22]): 80
- Plant response rating, Blackgrass (blackgrass [21]; [23]): 70

— US20260262643A1, “HERBICIDAL BENZOXAZINES” (FMC CORPORATION, priority 2022, published 2026)
